Test results from patent publication US20190331666A1, “METHODS FOR DRUG DISCOVERY USING STEM CELL-DERIVED SCHWANN CELLS” (MEMORIAL SLOAN-KETTERING CANCER CENTER, priority 2016, published 2019).

What was measured:
STZ-treated C57BL6 mice [1] = assay: TUNEL staining of sciatic nerves of STZ-treated mice; format: in vivo; settings: oral in chow ~300 mg/kg daily
Protocol: (§1) All procedures were performed following NIH guidelines, and were approved by the local Institutional Animal Care and Use Committee (IACUC). 3-8 weeks old male C57BL6 mice were treated with one dose IP injection of streptozotocin (180 mg/kg, sigma, 85882) to induce pancreatic beta cell death. Blood glucose levels was measured using a standard glucometer (Freestyle Lite) in weekly intervals starting at one week post-treatment, by drawing a drop of blood from tail tip. BP treatment was initiated one week post-streptozotocin treatment. BP was mixed with standard chow at 1.63 mg/gram of chow to be administered orally at ˜300 mg/kg daily. The dose was calculated on the basis of average daily food intake (5.5 gram/day) and initial body weight (30 grams).

STZ-treated C57BL6 mice [2] = assay: Transmission electron microscopy of myelin in sciatic nerves of STZ-treated mice; format: in vivo; settings: oral in chow ~300 mg/kg daily
Protocol: as §1

[3] = system: intracellular glucose levels in hESC-SCs; assay: Intracellular glucose measurement in hESC-SCs; format: cell-based, human; settings: high glucose
From the text: (§2) High glucose, low glucose and drug treated SCs and sensory neurons were subjected to biochemical assays for Sorbitol (abcam, ab118968), glucose (abcam, ab65333), Pyruvate (abcam, ab65342) and 2DG uptake (abcam, ab136955) measurements according to manufacturer's instructions. Data was normalizing according to cell numbers and averaged over 3-6 biological replicates.

STZ-treated C57BL6 mice [4] = assay: Blood glucose in STZ-treated diabetic mice; format: in vivo; settings: oral in chow ~300 mg/kg daily
Protocol: as §1

STZ-treated C57BL6 mice [5] = assay: Mouse thermal sensitivity (hot plate) test in STZ-treated mice; format: in vivo; settings: seven and eight weeks post STZ, oral in chow ~300 mg/kg daily
Protocol: as §1, with “grams). Thermal nociception was assessed using the hot plate test. The hot plate (Ugo Basile 35100) consisted of a metal surface (55° C.) with a transparent plexiglass cylinder to contain the mouse. […] Typical baseline latencies are 5-10 seconds, with maximal latencies of 30 seconds.” for “grams).”

[6] = system: high glucose treated hESC-SCs; assay: High content screening for drugs reversing glucose-mediated SC cytotoxicity (Prestwick library); format: cell-based, human; settings: 30 mM glucose, compounds at 1 μM, 72 hours
Protocol: The chemical compound screening was performed using the Prestwick Chemical Library®. RFP-labeled hESC-SCs were plated in 384 well plates (1,000/well) and treated with 30 mM glucose immediately before addition of the compounds. The compounds were added at 1 μM concentration. 72 hours later, the plates were treated with DAPI for ten minutes, washed twice and fixed for total plate imaging. The number of viable cells was quantified for each well by counting the number of DAPI negative, RFP positive cells. The percentage of dead cells were calculated for each well by dividing the number of DAPI positive cells by total RFP positive cells.
Data are presented as mean±SEM and were derived from at least 3 independent experiments. Statistical analysis was performed using the Student t-test (comparing 2 groups) or ANOVA with Dunnett test (comparing multiple groups against control). Distribution of the raw data approximated normal distribution (Kolmogorov Smirnov normality test) for data with sufficient number of replicates to test for normality. Survival analysis was performed using log rank (Mantel-Cox) test. Z-scores for primary hits were calculated as Z=(x−μ)/σ. X is the migration score value and is 3 for all hit compounds. μ is the mean migration score value and a is the standard deviation for all compounds and DMSO controls

[7] = system: glucose uptake in hESC-SCs; assay: Glucose (2DG) uptake in hESC-SCs; format: cell-based, human; settings: high glucose
From the text: as §2

[8] = system: pyruvate levels in hESC-SCs; assay: Pyruvate measurement in hESC-SCs; format: cell-based, human; settings: high glucose
From the text: as §2

[9] = system: sorbitol levels in hESC-SCs; assay: Sorbitol measurement in hESC-SCs; format: cell-based, human; settings: high glucose treated hESC-SCs
Protocol: High glucose, low glucose and drug treated SCs and sensory neurons were subjected to biochemical assays for Sorbitol (abcam, ab118968), glucose (abcam, ab65333), Pyruvate (abcam, ab65342) and 2DG uptake (abcam, ab136955) measurements according to manufacturer's instructions. Data was normalizing according to cell numbers and averaged over 3-6 biological replicates. For validation of the selected hit compound (Bupropion HCL, Sigma, B102), the cells were treated with various concentrations of the compound for dose response analysis. The highest non-toxic dose (0.7 μM-based on optimal sorbitol reduction and viability) was used for follow-up experiments.

[10] = system: patients suffering from neuropathic pain; settings: cited from earlier work
[11] = system: high glucose treated hESC-SCs; assay: Dose response validation, SC viability / cell death (LDH); format: cell-based, human
Protocol: To monitor the viability of SCs, cells were assayed for LDH activity using CytoTox 96 cytotoxicity assay kit (Promega, G1780). Briefly, the cells were plated in 96 well plates at 30,000 cells/cm^2. The supernatant and the cell lysate is harvested 24 hours later and assayed for LDH activity using a plate reader (490 nm absorbance). Viability was calculated by dividing the LDH signal of the lysate by total LDH signal (from lysate plus supernatant). The cells were cultured in Schwann cell medium (Sciencell, 1701) on PO/LM/FN coated dishes during the assay. For validation of the selected hit compound (Bupropion HCL, Sigma, B102), the cells were treated with various concentrations of the compound for dose response analysis. The highest non-toxic dose (0.7 μM-based on optimal sorbitol reduction and viability) was used for follow-up experiments.

rodent GSK3β homologs = settings: cited from earlier work

Compound | TUNEL+ apoptotic cells in the sciatic nerves (STZ-treated C57BL6 mice [1]) | percentage of damaged myelin in the sciatic nerves (STZ-treated C57BL6 mice [2]) | intracellular glucose levels [3] | blood glucose levels (STZ-treated C57BL6 mice [4]) | response time to thermal stimulation (latency of hind paw withdrawal) (STZ-treated C57BL6 mice [5]) | enhancing the viability of high glucose treated hESC-SCs (primary screen) [6] | glucose uptake [7] | levels of pyruvate [8] | IC50 ([9]; Homo sapiens, read-out: IC50 (dose-response in rescuing SC viability and in decreasing sorbitol levels)) [nM] | highest non-toxic dose (based on optimal sorbitol reduction and viability) [9] [µM] | dose of maximum effect ([9]; dose used for all further studies) | benefit in the treatment of neuropathic pain [10] | levels inducing gradual dose-dependent toxicity ([11]; hESC-SCs) | rescuing SC viability ([11]; high glucose treated hESC-SCs, various concentrations) | IC50 values against rodent GSK3β homologs (rodent GSK3β homologs)
CC(NC(C)(C)C)C(=O)c1cccc(Cl)c1.Cl (stereo not drawn) [BP, 2-(tert-butylamino)-1-(3-chlorophenyl)propan-1-one;hydrochloride] | significantly fewer apoptotic cells | significantly reduced | reduced | does not affect glucose levels | significantly improved response time | most potent compound | without affecting | increased | 263 | 0.7 | 0.7 | some benefit | above 2 μM | dose-response | 
Cc1c[nH]c(-c2cnc(NCCNc3ccc(C#N)cn3)nc2-c2ccc(Cl)cc2Cl)n1 [CHIR99021, 6-(2-(4-(2,4-dichlorophenyl)-5-(4-methyl-1H-imidazol-2-yl)pyrimidin-2-ylamino)ethylamino)nicotinonitrile] |  |  |  |  |  |  |  |  |  |  |  |  |  |  | nanomolar
